{"source": "patent US6784165B1", "about": "“Treatment of heart rhythm disturbances with N6-substituted-5′-(N-substituted) carboxamidoadenosines” (Aderis Pharmaceuticals, Inc., priority 1999, dated 2004)", "key": {"adenosine A1 receptor": {"molecular_target": "T1, adenosine A1 receptor (Rattus norvegicus, UniProt P25099)", "T1 sequence (P25099 1-326)": "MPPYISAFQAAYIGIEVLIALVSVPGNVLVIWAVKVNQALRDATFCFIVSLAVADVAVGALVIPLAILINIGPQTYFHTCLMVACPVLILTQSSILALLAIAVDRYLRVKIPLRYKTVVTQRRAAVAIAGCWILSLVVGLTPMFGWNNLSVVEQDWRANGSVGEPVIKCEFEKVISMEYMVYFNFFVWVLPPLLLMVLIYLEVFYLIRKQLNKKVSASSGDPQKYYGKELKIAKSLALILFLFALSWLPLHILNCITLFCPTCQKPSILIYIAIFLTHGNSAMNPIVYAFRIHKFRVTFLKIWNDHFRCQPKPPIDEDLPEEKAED", "assay": "Negative inotropic response in electrically stimulated rat isolated left atria (isoproterenol-stimulated)", "design": "from tissue; host or cells: whole animal (conscious Sprague-Dawley rats)", "settings": "plateau negative inotropic response, 1 Hz, isoproterenol 10^−8 M", "description": "Concentration dose-effect curve data were fitted to a sigmoid curve using Graphpad PRIZM™ software to obtain the concentration or dose of test compound that produces 50% of the maximal obtainable response, in vitro EC50 or in vivo ED50 values, for activation of the adenosine A1 receptor. Responses measured to each dose were the plateau negative inotropic response to cumulative additions of test compound in the isolated left atria and the peak bradycardia in response to bolus intravenous injections of test compound in conscious rats. Oral bioavailability was estimated from pharmacodynamic responses using the expression: (Response AUCoral/Response AUCiv)(Doseiv/Doseoral), where Response AUC is the area under the curve for test compound-induced bradycardia over time.\nMale Sprague-Dawley rats weighing 200-350 grams were sacrificed and the hearts rapidly removed and placed in a warmed Krebs-Henseleit buffer solution. The left atria were dissected free from the hearts and suspended in 30 mL jacketed isolated organ baths filled with Krebs-Henseleit buffer, oxygenated with 95% O2/5% CO2 and maintained at 37° C. Tissues were connected to a force displacement transducer under a resting tension of 1 gram. Atria were stimulated electrically at 1 Hz, 1 msec duration and supramaximal voltage to produce regular contractions of tissue.\nAdenosine A1 agonists were added to the baths at increasing cumulative concentrations until a maximal decrease in the force of contraction was obtained. Because adenosine A1 agonists have only a small direct negative inotropic action in rat atria, it was necessary to stimulate β-adrenergic receptors to produce positive inotropy in order to maximize the negative intropic response and thereby facilitate measurement. Under these conditions, adenosine A1 agonists acting at A1 receptors indirectly reduce the β-adrenergic mediated positive inotropy. Accordingly, the β-adrenergic agonist isoproterenol (10^−8 M) was added to the organ baths approximately 15 minutes before the addition of the adenosine A1 agonist."}, "[1]": {"tested_on": "guinea pig isolated heart", "assay": "Guinea pig isolated heart model of paroxsymal supraventricular tachycardia (200/300/200 bpm pacing)", "experimental": "(§1) Guinea pig isolated hearts were prepared according to the methods described in Example 5. In the first portion of the experiment designed to determine the effect of heart rate on the negative dromotropic activity of Compound A, hearts were allowed to beat spontaneously or electrically paced either at 200 beats per minute (approximately 20% above the spontaneous rate) or at 300-360 beats per minute (approximately 80% above the spontaneous rate). Atrioventricular (AV) conduction interval (AV interval) was determined as the time from the atrial stimulus to the beginning of ventricular depolarization. The AV interval measurements were performed at each pacing rate with increased concentrations of Compound A as described in Example 5. Upon electrical pacing at 200 beats per minute, Compound A at a mean concentration of 3.9 nM produced a mean maximal 58% increase in AV interval, and heart block at a mean minimal concentration of 5.1 nM. […] The results are summarized in the table below, with data from spontaneously beating hearts included for comparative purposes:\nUsing the experimental conditions described in Example 6, individual hearts were paced at 200 bpm for one minute followed abruptly by one minute of pacing at 300 bpm, after which the pacing rate was returned to 200 bpm. The 300 bpm pacing cycle was intended to simulate an episode of supraventricular tachycardia. This pacing sequence was conducted in the presence of vehicle and in the presence of increasing concentrations of Compound A. The results are expressed in FIG. 2. Compound A, at a mean concentration of 2 nM that had little effect on AV interval at 200 bpm induced AV block within 30 seconds during the 300 bpm episode."}, "conscious rats": {"tested_on": "conscious rats", "assay": "Heart rate and blood pressure in conscious unrestrained rats (intravenous or oral)", "type": "in vivo, rat", "experimental": "Male Sprague-Dawley rats were anesthetized with sodium pentobarbital 50 mg/kg i.p., and indwelling catheters were surgically implanted in the carotid artery and jugular vein two days prior to each experiment. During all subsequent experiments, rats were conscious and unrestrained. The carotid artery cannula was attached to a pressure transducer and blood pressure was recorded continuously throughout each experiment using a Grass polygraph. Heart rate was derived from the blood pressure signal using a Grass tachygraph. The measured parameters were allowed from 30 to 90 minutes to stabilize before the administration of test compound.\nCompound A was administered by intravenous administration via the jugular vein indwelling catheter or by oral gavage using a curved, bulbed oral dosing cannula. Food and water were available ad libitum."}, "[2]": {"tested_on": "guinea pig isolated heart", "assay": "Guinea pig isolated electrically paced heart: effect of heart rate on AV interval and heart block", "experimental": "Guinea pig isolated hearts were prepared according to the method of Langendorff in which the coronary vasculature was perfused in a retrograde fashion at constant pressure via the aorta. Compound A was administered to the spontaneously beating hearts by infusion into the perfusion line supplying buffer to the coronary vasculature. The concentration of Compound A was adjusted by changes in the infusion rate and/or changes in the concentration of infusion solutions. The concentration of Compound A present in the perfusate was calculated by dividing the rate of Compound A infused by the coronary flow rate. Spontaneously beating heart rate and AV interval were recorded.\nas §1, with “purposes: […]” for “purposes:”"}, "[3]": {"settings": "0.1 μg/kg/min intravenously for 120 minutes"}}, "data": [{"smiles": "CCNC(=O)[C@H]1O[C@@H](n2cnc3c(NC4CCCC4)ncnc32)[C@H](O)[C@@H]1O", "note": "[Compound A, ethyl N^6-cyclopentyladenosine-5′-uronamide]", "values": [{"measurement": "EC50", "setting": "adenosine A1 receptor", "value": 0.0155, "unit": "µM"}, {"measurement": "effect on AV interval at 200 bpm pacing", "setting": "[1]; 2 nM, 200 bpm pacing before the episode", "value": "little effect"}, {"measurement": "time to AV block during the 300 bpm episode", "setting": "[1]; 2 nM, 300 bpm pacing", "value": "≤ 30", "unit": "s"}, {"measurement": "AV interval when pacing was returned to 200 bpm", "setting": "[1]; 2 nM, after the 300 bpm episode", "value": "returned to near normal values"}, {"measurement": "mean concentration inducing AV block during the 300 bpm pacing episode", "setting": "[1]; PSVT model, 300 bpm episode", "value": 2, "unit": "nM"}, {"measurement": "mean blood pressure", "setting": "conscious rats; [3]", "value": "remained unchanged"}, {"measurement": "mean decrease in heart rate", "setting": "conscious rats; [3]", "value": 34, "unit": "%"}, {"measurement": "mean decrease in heart rate", "setting": "conscious rats; 100 μg/kg oral", "value": 40, "unit": "%"}, {"measurement": "change in blood pressure", "setting": "conscious rats; intravenous dose range 0.05 μg/kg/min to 0.1 μg/kg/min", "value": "no change"}, {"measurement": "ED50 for induction of bradycardia", "setting": "conscious rats; intravenously for 120 minutes, conscious rats", "value": 0.1, "unit": "µg/kg/min"}, {"measurement": "change in blood pressure", "setting": "conscious rats; oral dose range 30 μg/kg to 100 μg/kg", "value": "no change"}, {"measurement": "mean maximal increase in AV interval", "setting": "[2]; paced at 200 beats per minute, at 3.9 nM", "value": 58, "unit": "%"}, {"measurement": "Mean Concentration of Compound A Required to Produce Maximal AV Interval", "setting": "[2]; paced at 200 bpm", "value": 3.9, "unit": "nM"}, {"measurement": "Mean Minimal Concentration of Compound A Required to Produce Heart Block", "setting": "[2]; paced at 200 bpm", "value": 5.1, "unit": "nM"}, {"measurement": "mean maximal increase in AV interval", "setting": "[2]; paced at 300-360 beats per minute, at 1.45 nM", "value": 20, "unit": "%"}, {"measurement": "Mean Concentration of Compound A Required to Produce Maximal AV Interval", "setting": "[2]; paced at 300-360 bpm", "value": 1.45, "unit": "nM"}, {"measurement": "Mean Minimal Concentration of Compound A Required to Produce Heart Block", "setting": "[2]; paced at 300-360 bpm", "value": 2.1, "unit": "nM"}]}]}
